In brackets after ≈: the same amount, converted by molar mass.
Legend:
APAE001 (ATCC27853) = assay: MIC broth microdilution, APAE001; format: cell-based, P. aeruginosa; details: for MIC: Pseudomonas aeruginosa, ATCC27853, read-out: MIC APAE001, APAE001 is ATCC27853; for MIC APAE001: APAE001 is ATCC27853
Outline: (§1)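 Incubation: 35° C., ambient air, 18-24 h. Medium: cation-adjusted Mueller-Hinton broth with 2-fold serial dilutions of drug. Inoculum: 3×10^5–7×10^5 CFU/mL final, per CLSI microdilution method.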

[1] = system: APAE006 (strain of P. aeruginosa in which all efflux pumps are inactivated); assay: microbe, parasite or virus in culture; format: cell-based; details: for MIC: Pseudomonas aeruginosa, read-out: MIC APAE006, P. aeruginosa, all efflux pumps inactivated; for MIC APAE006: P. aeruginosa, all efflux pumps inactivated
Outline: (§2)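 MICs come from broth microdilution in cation-adjusted Mueller-Hinton broth, final inoculum 3×10^5–7×10^5 CFU/mL, 18-24 hours at 35° C. Levofloxacin and QC strains served as assay controls.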

[2] = system: APAE006 in the presence of 8 micrograms per milliliter of polymyxin B nonapeptide; format: cell-based, P. aeruginosa; details: in the presence of 8 micrograms per milliliter of polymyxin B nonapeptide
Outline: as §2

AECO001 HSA AGP = assay: MIC broth microdilution, AECO001 HSA AGP; format: cell-based, E. coli; details: for MIC: Escherichia coli
Method: Bacterial isolates were cultivated from −70° C. frozen stocks by overnight passages at 35° C. in ambient air on Mueller-Hinton agar (Beckton Dickinson, Franklin Lakes, N.J.). Clinical isolates tested were obtained from various geographically diverse hospitals in the US and abroad (Focus Diagnostics, Herndon, Va. and JMI, North Liberty, Iowa). Quality control strains were from the American Type Culture Collection (ATCC; Rockville, Md.). Additional primary panel strains were generated using standard molecular biology techniques.
Minimum Inhibitory Concentrations (MICs) were determined by the broth microdilution method in accordance with the Clinical and Laboratory Standards Institute (CLSI) guidelines. In brief, organism suspensions were adjusted to a 0.5 McFarland standard to yield a final inoculum between 3×10^5 and 7×10^5 colony-forming units (CFU)/mL. Drug dilutions and inocula were made in sterile, cation adjusted Mueller-Hinton Broth (Beckton Dickinson). An inoculum volume of 100 μL was added to wells containing 100 μL of broth with 2-fold serial dilutions of drug. All inoculated microdilution trays were incubated in ambient air at 35° C. for 18-24 hours. […] Performance of the assay was monitored by the use of laboratory quality-control strains and levofloxacin, a compound with a defined MIC spectrum, in accordance with CLSI guidelines.
*AECO001 is ATCC25922, AECO063 is ATCC25922 bearing an acrAB mutation, APAE001 is ATCC27853, APAE006 is a strain of P. aeruginosa in which all efflux pumps are inactivated, APAE006+PMBN indicates MICs with the indicated strain in the presence of 8 micrograms per milliliter of polymyxin B nonapeptide, AABA1060 is a clinical isolate of Acinetobacter baumannii, ASAU001 is a laboratory strain of S. aureus (ATCC29213).

[3] = system: AECO063 (ATCC25922 bearing an acrAB mutation); assay: microbe, parasite or virus in culture; format: cell-based, E. coli; details: for MIC: Escherichia coli, ATCC25922, read-out: MIC AECO063; for MIC AECO063: ATCC25922 bearing an acrAB mutation
Outline: as §1

[4] = system: ASAU001 (laboratory strain of S. aureus, ATCC29213); assay: MIC broth microdilution, ASAU001; format: cell-based; details: for MIC: Staphylococcus aureus, ATCC29213, read-out: MIC ASAU001; for MIC ASAU001: S. aureus ATCC29213
Outline: as §1

[5] = system: AABA1060 (clinical isolate of Acinetobacter baumannii); assay: MIC broth microdilution, AABA1060; format: cell-based; details: for MIC: Acinetobacter baumannii, read-out: MIC AABA1060; for MIC AABA1060: clinical isolate of Acinetobacter baumannii
Outline: as §1

AECO001 (ATCC25922) = assay: MIC broth microdilution, AECO001; format: cell-based, E. coli; details: for MIC: Escherichia coli, ATCC25922, read-out: MIC AECO001; for MIC AECO001: AECO001 is ATCC25922
Outline: as §1

Molecule: C[C@@H](NC(=O)CNC1CC1)[C@H](NC(=O)c1ccc(C#Cc2ccc(CO)cc2)cc1)C(=O)NO [Example 137-3]
- MIC (APAE001 (ATCC27853)): 2 to 16 µg/mL (≈ 4.31 to 34.4 µM)
- MIC [1]: < 2 µg/mL
- MIC APAE006 + PMBN [2]: A (MIC's of 2.0 μg/mL or less = A)
- MIC (AECO001 HSA AGP): 2 to 16 µg/mL (≈ 4.31 to 34.4 µM)
- MIC [3]: < 2 µg/mL
- MIC [4]: 16 to 64 µg/mL (≈ 34.4 to 138 µM)
- MIC [5]: 16 to 64 µg/mL (≈ 34.4 to 138 µM)
- MIC (AECO001 (ATCC25922)): < 2 µg/mL

Molecule: O=C(CNC1CC1)NC[C@H](NC(=O)c1ccc(C#C/C=C/c2ccccc2)cc1)C(=O)NO [Example 105-1, N—[(S)-2-(2-Cyclopropylamino-acetylamino)-1-hydroxycarbamoyl-ethyl]-4-((E)-4-phenyl-but-3-en-1-ynyl)-benzamide]
- MIC (APAE001 (ATCC27853)): 2 to 16 µg/mL (≈ 4.48 to 35.8 µM)
- MIC [1]: < 2 µg/mL
- MIC APAE006 + PMBN [2]: A (MIC's of 2.0 μg/mL or less = A)
- MIC (AECO001 HSA AGP): 2 to 16 µg/mL (≈ 4.48 to 35.8 µM)
- MIC [3]: < 2 µg/mL
- MIC [4]: 16 to 64 µg/mL (≈ 35.8 to 143 µM)
- MIC [5]: 16 to 64 µg/mL (≈ 35.8 to 143 µM)
- MIC (AECO001 (ATCC25922)): < 2 µg/mL

Molecule: C[C@@H](N)[C@H](NC(=O)c1ccc(C#Cc2ccc(CN3CCC3)cc2)cc1)C(=O)NO [Example 118-1, N-((1S,2R)-2-Amino-1-hydroxycarbamoyl-propyl)-4-(4-azetidin-1-ylmethyl-phenylethynyl)-benzamide]
- MIC (APAE001 (ATCC27853)): 2 to 16 µg/mL (≈ 4.92 to 39.4 µM)
- MIC [1]: < 2 µg/mL
- MIC APAE006 + PMBN [2]: A (MIC's of 2.0 μg/mL or less = A)
- MIC (AECO001 HSA AGP): 16 to 64 µg/mL (≈ 39.4 to 157 µM)
- MIC [3]: 2 to 16 µg/mL (≈ 4.92 to 39.4 µM)
- MIC [4]: 16 to 64 µg/mL (≈ 39.4 to 157 µM)
- MIC [5]: 16 to 64 µg/mL (≈ 39.4 to 157 µM)
- MIC (AECO001 (ATCC25922)): 16 to 64 µg/mL (≈ 39.4 to 157 µM)

Molecule: CN(C)CC(=O)NC[C@H](NC(=O)c1ccc(C#C/C=C/c2ccc(CN3CCOCC3)cc2)cc1)C(=O)NO [Example 98-2, N—[(S)-2-(2-dimethylamino-acetylamino)-1-hydroxycarbamoyl-ethyl]-4-[(E)-4-(4-morpholin-4-ylmethyl-phenyl)-but-3-en-1-ynyl]-benzamide]
- MIC (APAE001 (ATCC27853)): 2 to 16 µg/mL (≈ 3.75 to 30 µM)
- MIC [1]: < 2 µg/mL
- MIC APAE006 + PMBN [2]: A (MIC's of 2.0 μg/mL or less = A)
- MIC (AECO001 HSA AGP): 2 to 16 µg/mL (≈ 3.75 to 30 µM)
- MIC [3]: < 2 µg/mL
- MIC [4]: 16 to 64 µg/mL (≈ 30 to 120 µM)
- MIC [5]: 16 to 64 µg/mL (≈ 30 to 120 µM)
- MIC (AECO001 (ATCC25922)): < 2 µg/mL

Molecule: N-[1-((S)-Hydroxycarbamoyl)-2-methylamino-ethyl]-4-[(E)-4-(4-morpholin-4-ylmethyl-phenyl)-but-1-en-3-ynyl]-benzamide [Example 111-4]
- MIC APAE001 (APAE001 (ATCC27853)): B (MIC's of greater than 2.0 μg/mL to 16.0 μg/mL = B)
- MIC APAE006 [1]: A (MIC's of 2.0 μg/mL or less = A)
- MIC APAE006 + PMBN [2]: A (MIC's of 2.0 μg/mL or less = A)
- MIC AECO001 HSA AGP (AECO001 HSA AGP): C (MIC's of greater than 16.0 μg/mL to 64.0 μg/mL = C)
- MIC AECO063 [3]: A (MIC's of 2.0 μg/mL or less = A)
- MIC ASAU001 [4]: D (MIC's of greater than 64.0 μg/mL = D)
- MIC AABA1060 [5]: C (MIC's of greater than 16.0 μg/mL to 64.0 μg/mL = C)
- MIC AECO001 (AECO001 (ATCC25922)): A (MIC's of 2.0 μg/mL or less = A)

Molecule: 3-Amino-N-hydroxy-3-methyl-2-[3-(4-morpholin-4-ylmethyl-phenyl)-propynoylamino]-butyramide [Example 129-1]
- MIC APAE001 (APAE001 (ATCC27853)): A (MIC's of 2.0 μg/mL or less = A)
- MIC APAE006 [1]: A (MIC's of 2.0 μg/mL or less = A)
- MIC APAE006 + PMBN [2]: A (MIC's of 2.0 μg/mL or less = A)
- MIC AECO001 HSA AGP (AECO001 HSA AGP): B (MIC's of greater than 2.0 μg/mL to 16.0 μg/mL = B)
- MIC AECO063 [3]: A (MIC's of 2.0 μg/mL or less = A)
- MIC ASAU001 [4]: D (MIC's of greater than 64.0 μg/mL = D)
- MIC AABA1060 [5]: B (MIC's of greater than 2.0 μg/mL to 16.0 μg/mL = B)
- MIC AECO001 (AECO001 (ATCC25922)): A (MIC's of 2.0 μg/mL or less = A)

Molecule: O=C(N[C@H](C(=O)NO)C1CCS(=O)(=O)CC1)c1ccc(C#Cc2ccc(CN3CCOCC3)cc2)cc1 [Example 67-9]
- MIC (APAE001 (ATCC27853)): 16 to 64 µg/mL (≈ 30.4 to 122 µM)
- MIC [1]: < 2 µg/mL
- MIC APAE006 + PMBN [2]: A (MIC's of 2.0 μg/mL or less = A)
- MIC (AECO001 HSA AGP): 16 to 64 µg/mL (≈ 30.4 to 122 µM)
- MIC [3]: < 2 µg/mL
- MIC [4]: > 64 µg/mL
- MIC [5]: > 64 µg/mL
- MIC (AECO001 (ATCC25922)): 2 to 16 µg/mL (≈ 3.8 to 30.4 µM)

Molecule: O=C(N[C@H](C(=O)NO)c1ccccc1)c1ccc(C#Cc2ccc(CN3CCOCC3)cc2)cc1 [Example 66-5, N—((S)-hydroxycarbamoyl-phenyl-methyl)-4-(4-morpholin-4-ylmethyl-phenylethynyl)-benzamide]
- MIC (APAE001 (ATCC27853)): 2 to 16 µg/mL (≈ 4.26 to 34.1 µM)
- MIC [1]: < 2 µg/mL
- MIC APAE006 + PMBN [2]: A (MIC's of 2.0 μg/mL or less = A)
- MIC (AECO001 HSA AGP): 2 to 16 µg/mL (≈ 4.26 to 34.1 µM)
- MIC [3]: < 2 µg/mL
- MIC [4]: > 64 µg/mL
- MIC [5]: 2 to 16 µg/mL (≈ 4.26 to 34.1 µM)
- MIC (AECO001 (ATCC25922)): < 2 µg/mL

Molecule: O=C(CNC1CC1)NC[C@H](NC(=O)c1ccc(C#C/C=C/c2ccc(CN3CCOCC3)cc2)cc1)C(=O)NO [Example 100-1, N—[(S)-2-(2-Cyclopropylamino-acetylamino)-1-hydroxycarbamoyl-ethyl]-4-[(E)-4-(4-morpholin-4-ylmethyl-phenyl)-but-3-en-1-ynyl]-benzamide]
- MIC (APAE001 (ATCC27853)): 2 to 16 µg/mL (≈ 3.67 to 29.3 µM)
- MIC [1]: < 2 µg/mL
- MIC APAE006 + PMBN [2]: A (MIC's of 2.0 μg/mL or less = A)
- MIC (AECO001 HSA AGP): 2 to 16 µg/mL (≈ 3.67 to 29.3 µM)
- MIC [3]: < 2 µg/mL
- MIC [4]: 16 to 64 µg/mL (≈ 29.3 to 117 µM)
- MIC [5]: 16 to 64 µg/mL (≈ 29.3 to 117 µM)
- MIC (AECO001 (ATCC25922)): < 2 µg/mL

— US9617256B2 (priority 2007, dated 2017)
